Organism: Mus musculus
Assay: Antiinflammatory activity against PMA-induced ear inflammation in mouse assessed as decrease in ear weight at 50 ug/ear
Type: functional
Parameters: scale not given: the % may be the effect or the level left

For `CC(=O)O[C@@H]1C[C@H]2[C@@](C)(CC[C@H]3C(C)(C)CCC[C@]23C)[C@@H]2CC=C(C=O)C[C@]21C` [HYRTIAL], the Activity was 43%.

Reference: ChEMBL document CHEMBL1149020, “Sesterterpenes from a common marine sponge, Hyrtios erecta” (1986)
